# Measured values published in paper PMC7931047, “Discovery of Substituted (2-Aminooxazol-4-yl)Isoxazole-3-carboxylic Acids as Inhibitors of Bacterial Serine Acetyltransferase in the Quest for Novel Potential Antibacterial Adjuvants” (Pharmaceuticals, 2021).
# Entries after “also recorded” stand apart in the source; their conditions may differ. Like-named read-outs stand apart in the source and are kept apart here.
# What was measured:
# [1] = target: T1, SAT from Salmonella enterica serovar Typhimurium (Salmonella typhimurium, UniProt P29847); assay: StSAT enzyme activity assay (spectrophotometric indirect assay with Ellman's reagent); assay type: biochemical; conditions: for inhibition at 1000 µM: compound at fixed 1 mM, both substrates equal to Km, 5% DMSO
# T1 construct: trxA (thioredoxin) fusion; made in house
# T1 sequence (P29847 whole entry, the tested form may be a part): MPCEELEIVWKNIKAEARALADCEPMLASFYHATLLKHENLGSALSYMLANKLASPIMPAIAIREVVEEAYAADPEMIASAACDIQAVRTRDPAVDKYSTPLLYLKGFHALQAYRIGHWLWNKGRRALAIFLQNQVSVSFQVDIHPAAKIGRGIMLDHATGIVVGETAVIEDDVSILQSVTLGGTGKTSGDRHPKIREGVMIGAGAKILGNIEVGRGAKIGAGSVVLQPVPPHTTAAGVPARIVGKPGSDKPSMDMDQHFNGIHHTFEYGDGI
# Protocol: Since the primary structure of SAT is highly conserved among bacteria, [38] the virtual screening of our in-house library was performed using the available crystal structures of EcSAT (pdb code: 1T3D) and HiSAT (pdb code: 1SSM), setting the experimental parameters as previously reported by us. After this preliminary analysis, a total of 7 compounds were identified and selected to be evaluated on the recombinant enzyme from S. typhimurium. The enzyme used in these assays has a Km,Ser = 1.07 ± 0.15 mM, a Km,AcCoA = 0.17 ± 0.04 mM, kcat = 3813 ± 169 min^−1 [37].
# SAT from Salmonella enterica serovar Typhimurium was expressed as trxA fusion protein as previously described and was more than 95% pure based on SDS-PAGE analysis. The enzyme activity was measured by a spectrophotometric indirect assay that exploits the signal at 412 nm generated by 5,5’-Dithiobis(2-nitrobenzoic acid (Ellmn’s reagent) reduction by the reaction product coenzyme A [37]. A total of 5% DMSO was present in all the assays and was proven not to perturb enzyme activity (data not shown). The concentration of substrates was set equal to Km in order to improve the sensitivity of the assay for both competitive and uncompetitive mechanism of inhibition. The dependence of the relative reaction rate on the concentration of compounds was fitted to Equation (1) to calculate the IC50: vi/v0=1/1+[I]/IC50
# The inhibition mechanism was determined by fitting the dependence of the initial reaction rate on the concentration of acetyl CoA (at fixed, 1 mM L-Ser concentration) in the presence of different concentrations of inhibitor ( 1/3IC50≥[inhibitor]≤3IC50 ) to the equation for competitive, uncompetitive and non-competitive mechanisms. The equation that fits a competitive mechanism (Equation (2)) was used to calculate Ki for compound 5: v0=Vmax·[acetyl−CoA]/[acetyl−CoA]+(Km·α) where α=1+([comp5]/Ki) .
# [2] = tested on: M. tuberculosis; design: method as in PMID 28749666; conditions: cited from earlier work
# [3] = Chemical stability in DMSO solution by 1H NMR at different time points; assay type: physicochemical; conditions: 5 mg in 500 μL DMSO-d6, room temperature
# Protocol: Upon noticing changes in the appearance of the DMSO solution over time at room temperature, we deemed it of interest to investigate the chemical stability of the compounds. Therefore, in order to evaluate it, ^1H NMR analysis at different time points (1 h, 2.5 h, and 20 h) of the DMSO solution (5 mg in 500 μL of DMSO-d6) was performed (Supporting Information). Since the time required to observe changes in the colour of the solution was dependent of the substituent at position R2 of series 22, to establish the effect of the substituent on the overall stability of the compound, analogue 22a (R2 = phenyl) which contains the non-substituted phenyl group, analogue 22b (R2 = 3,5-dichlorophenyl), substituted with an EWG and analogue 22d (R2 = 3,5-dimethylphenyl) substituted with an electron donating group (EDG) were selected to perform the chemical stability studies. The stability of the compounds increases in the following order: 22b (stability in DMSO < 2.5 h) < 22a (stability in DMSO < 20 h) < 22d (stability in DMSO < 7 days). Thus, it is possible to conclude that EWGs like the simple phenyl or the phenyl replaced with two chlorines produce fewer stable molecules. On the other hand, the phenyl replaced with EDGs contributes to the overall stability of the molecule. It is hypothesised that the mild oxidative properties of DMSO are able to interfere with the oxazole scaffold, which leads to the opening of the ring and then full degradation of the compound in study.
# [4] = tested on: S. Typhimurium ATCC14028; assay: Minimal Inhibitory Concentration (MIC) assay; assay type: cell-based
# [5] = tested on: E. coli ATCC25922; assay: Minimal Inhibitory Concentration (MIC) assay; assay type: cell-based; conditions: Escherichia coli; E. coli ATCC25922, Mueller Hinton broth (MHB)
# [6] = tested on: StOASS; design: method as in PMID 26894308; conditions: cited from earlier work
# [7] = Table 3, synthesised compounds, read-out: StSAT IC50
# [8] = values as quoted in the SAR discussion text, read-out: IC50
# [9] = Table 2, analogues of compound 5, * = estimated due to solubility issues, read-out: IC50
# [10] = StSAT IC50, Table 3, synthesised compounds
smiles,measurement,setting,value
O=C(O)C1C2C=CC(C2)C1C(=O)O (centres unmarked) [Compound 2],inhibition at 1000 µM,[1],34.9 ± 6%
"CCOC(=O)c1cc(-c2coc(Nc3ccccc3)n2)on1 [Compound 21a, Ethyl 5-(2-(phenylamino)oxazol-4-yl)isoxazole-3-carboxylate]",IC50,[1]; [7],0.00268 ± 0.00027 mM
CC1CN(C(=O)c2cc3ccccc3[nH]2)CC(C)N1 (centres unmarked) [Compound 3],inhibition at 1000 µM,[1],31.4 ± 5%
Cc1ccc(Nc2nc(-c3cc(C(=O)O)no3)cs2)cc1 [Compound 5],IC50,"[1]; Table 1, virtual screening hits, substrates equal to Km, read-out: IC50",0.11 mM
same,Ki,"[1]; competitive towards acetyl-CoA, fixed 1 mM L-Ser",64 ± 12 µM
same,Mechanism,"[1]; inhibition mechanism, varied acetyl CoA at fixed 1 mM L-Ser",competitive inhibitor; also recorded: Competitive with AcCoA
same,activity toward M. tuberculosis,[2],inactive
Cc1ccc(Nc2nc(-c3cc(C(=O)O)no3)co2)cc1 [Compound 18],improvement in the affinity compared to the 2-aminothiazole counterpart,"[1]; 18 vs. 5, from IC50",> 40 fold
same,IC50,[1]; [8],0.0026 mM
Cc1ccc(Nc2nc(-c3ccncc3)cs2)cc1 [Compound 8],IC50,[1]; [9],> 0.4 mM
O=C(O)c1cc(-c2csc(Nc3cc(Cl)cc(Cl)c3)n2)on1 [Compound 20],IC50,[1]; [9],0.011 ± 0.001 mM
COc1ccc(-c2cc(-c3csc(Nc4ccc(C)cc4)n3)on2)cc1 [Compound 9],IC50,[1]; [9],0.012 ± 0.002 mM
CCOC(=O)c1cc(-c2csc(Nc3ccc(C)cc3)n2)on1 [Compound 14],IC50,[1]; [9],~0.01 mM
same,IC50,[1]; [8],0.01 mM
Cn1nc(C(=O)O)cc1-c1csc(Nc2cc(Cl)cc(Cl)c2)n1 [Compound 17],IC50,[1]; [9],0.021 ± 0.005 mM
CCOC(=O)c1cc(-c2csc(Nc3cc(Cl)cc(Cl)c3)n2)on1 [Compound 15],IC50,[1]; [9],0.018 ± 0.002 mM
Cc1ccc(Nc2nc(-c3cc(C(=O)NC45CC6CC(CC(C6)C4)C5)no3)cs2)cc1 [Compound 10],IC50,[1]; [9],0.009 ± 0.003 mM
CCn1c2ccccc2c2cc(CNC)ccc21 [Compound 6],inhibition at 1000 µM,[1],23.6%
Cc1ccc(Nc2nc(-c3cc(C(=O)Nc4ccccc4)no3)cs2)cc1 [Compound 13],IC50,[1]; [9],0.016 ± 0.003 mM
same,IC50,[1]; [8],0.0163 mM
CCOC(=O)c1cc(-c2coc(Nc3ccc(C)cc3)n2)on1 [Compound 19],IC50,[1]; [9],0.007 ± 0.002 mM
same,IC50,[1]; [8],0.0073 mM
"CCOC(=O)c1cc(-c2coc(Nc3cc(Cl)cc(Cl)c3)n2)on1 [Compound 21b, Ethyl 5-(2-((3,5-dichlorophenyl)amino)oxazol-4-yl)isoxazole-3-carboxylate]",IC50,[1]; [7],0.00252 ± 3e-05 mM
"O=C(O)c1cc(-c2coc(Nc3ccccc3)n2)on1 [Compound 22a, 5-(2-(phenylamino)oxazol-4-yl)isoxazole-3-carboxylic acid]",IC50,[1]; [10],0.00154 ± 0.00033 mM
same,stability in DMSO,[3],< 20 h
CC(=O)NC(C(=O)O)C(=O)O [Compound 4],inhibition at 1000 µM,[1],18.7 ± 6%
"Cc1cc(C)cc(Nc2nc(-c3cc(C(=O)O)no3)co2)c1 [Compound 22d, 5-(2-((3,5-dimethylphenyl)amino)oxazol-4-yl)isoxazole-3-carboxylic acid]",MIC,"[4]; S. Typhimurium ATCC14028, M9 medium deprived of cysteine",> 128 µM
same,MIC,"[4]; Salmonella enterica, S. Typhimurium ATCC14028, Mueller Hinton broth (MHB)",> 128 µM
same,IC50,[1]; [7],0.00424 ± 0.00011 mM
same,MIC,[5],> 128 µM
same,stability in DMSO,[3],< 170 h
"CCOC(=O)c1cc(-c2coc(Nc3ccncc3)n2)on1 [Compound 21e, Ethyl 5-(2-(pyridin-4-ylamino)oxazol-4-yl)isoxazole-3-carboxylate]",IC50,[1]; [7],0.00395 ± 0.00065 mM
Cc1ccc(Nc2nc(-c3cc(C(=O)O)nn3C)cs2)cc1 [Compound 16],IC50,[1]; [9],0.184 ± 0.013 mM
"O=C(O)c1cc(-c2coc(Nc3ccc(F)cc3)n2)on1 [Compound 22c, 5-(2-((4-fluorophenyl)amino)oxazol-4-yl)isoxazole-3-carboxylic acid]",IC50,[1]; [7],0.00251 ± 0.00034 mM
CNC(=O)c1cc(-c2csc(Nc3ccc(C)cc3)n2)on1 [Compound 12],IC50,[1]; [8],0.06 mM
"CCOC(=O)c1cc(-c2coc(Nc3ccc(F)cc3)n2)on1 [Compound 21c, Ethyl 5-(2-((4-fluorophenyl)amino)oxazol-4-yl)isoxazole-3-carboxylate]",IC50,[1]; [7],0.00304 ± 0.00037 mM
Cc1ccc(CC2(C(=O)O)CC2c2ccccc2)cc1 (centres unmarked) [UPAR415],mechanism of OASS inhibition,[6],competitive inhibitor
"O=C(O)c1cc(-c2coc(Nc3cc(Cl)cc(Cl)c3)n2)on1 [Compound 22b, 5-(2-((3,5-dichlorophenyl)amino)oxazol-4-yl)isoxazole-3-carboxylic acid]",IC50,[1]; [10],0.00803 ± 0.00018 mM
same,stability in DMSO,[3],< 2.5 h
Cc1ccc(C(=O)O)c(N)n1 [Compound 1],inhibition at 1000 µM,[1],19.4 ± 1%
O=C(O)[C@H]1C[C@@H]1c1ccccc1 [Compound 7],inhibition at 1000 µM,[1],> 40%
same,IC50,"[1]; virtual screening hit, value printed in mM (μM), read-out: IC50",> 2 mM
Cc1ccc(Nc2nc(-c3cc(C(N)=O)no3)cs2)cc1 [Compound 11],IC50,[1]; [9],0.026 ± 0.004 mM
"O=C(O)c1cc(-c2coc(Nc3ccncc3)n2)on1 [Compound 22e, 5-(2-(pyridin-4-ylamino)oxazol-4-yl)isoxazole-3-carboxylic acid]",IC50,[1]; [7],0.012 ± 0.00125 mM
